Common to all, as to type: cell-based
Assay [1] deals with Helicobacter pylori standard strain ATCC 43526 (NCTC 11916). The assay is described as follows: Antibacterial Test 1: MIC against Helicobacter pylori, agar plate dilution method (anaerobic MIC method). The following applies: 72 h, Hp ATCC 43526, agar plate dilution, 37° C., 3 days.
The subject of assay [2] is E. coli NIHJ JC-2. As to the kind of experiment: Antibacterial Test 2: MIC, agar dilution method (aerobic MIC method). Conditions: Escherichia coli, NIHJJC2. Here is the method:
(§1) Then, tested were antibacterial activities of the typical compounds of the present invention against gram-positive and -negative bacteria other than Hp. MICs of the typical compounds of the present invention were determined in substantial accordance with agar dilution method (aerobic MIC method) based on standard method of the Japan Society Chemotherapy.
(§2) The respective test compound were dissolved in dimethyl sulfoxide (DMSO) and serially diluted twofold to prepare solutions of the compounds with concentration of 0.05-100 μg/ml. The solutions of the compounds were respectively added to sensitive-disk agar medium-N (manufactured by NISSUI SEIYAKU) to prepare agar plates for determination.
(§3) The below-mentioned strains freezingly conserved at -135° C. were thawed in a warm bath (40° C.), cultured in a sensitivity-determining bouillon at 37° C. for 18-20 hours, and then diluted with the above-mentioned medium to prepare about 1.0×10^6 CFU/ml of bacterial suspension.
(§4) Inoculation was made by 5 μl by multi-inoculator (manufactured by SAKUMA SEISAKUSHO). Culturing was made under the same conditions as those of the pre-culturing and the MIC (unit: μg/ml) was determined by observing whether the bacteria grew or not.
In general terms: In agar dilution the substance is mixed into plates at graded concentrations.

The test system of assay [3] is K. pneumoniae PCI 602. Described as above. Conditions: Klebsiella pneumoniae, PCI602. The protocol: as §1, §2, §3, §4
For assay [4], the system named is B. subtilis PCI 219. Described as above. The following applies: Bacillus subtilis, PCI219. The protocol: as §1, §2, §3, §4
Assay [5] concerns P. aeruginosa IFO 3445. The assay is described as above. The following applies: Pseudomonas aeruginosa, IFO3445. The protocol:
as §1, §2, §3, §4

In assay [6] the test system is M. luteus ATCC 9341. The description is as above. The following applies: Micrococcus luteus, ATCC9341. The protocol: as §1, §2, §3, §4
Assay [7] concerns E. faecalis RIMD 3336001. Described as above. Conditions: Enterococcus faecalis, RIMD3336001. Here is the method:
as §1, §2, §3, §4

For assay [8], the system named is S. aureus FDA 209P. The description is as above. Conditions: Staphylococcus aureus, FDA209P. The protocol: as §1, §2, §3, §4

In brackets after ≈: the same amount, converted by molar mass.

The MIC is the least concentration at which growth counts as inhibited. High values mean a need for much substance, low ones inhibition by little substance.

As to `CSc1ccc2c(SCc3ccc(N(C)C)cc3)ccnc2c1` [Compound 31, 4-(4-Dimethylaminobenzylthio)-7-methylthioquinoline], the MIC in assay [1] was 0.1 µg/mL (≈ 0.294 µM); in assay [2], more than 100 µg/mL; in assay [3], more than 100 µg/mL; in assay [4], more than 100 µg/mL; in assay [5] it was more than 100 µg/mL; in assay [6], more than 100 µg/mL. Moreover, the MIC in assay [7] and in assay [8] was more than 100 µg/mL each time.

`O=C(CSc1ccnc2ccccc12)c1ccc(N2CCCCC2)cc1` [Compound 22, 4-[2-(4-Piperidinophenyl)-2-oxoethylthio]quinoline]: the MIC in assay [1] is 0.0062 µg/mL (≈ 0.0171 µM); in assay [2], more than 100 µg/mL; in assay [3], more than 100 µg/mL; in assay [4], more than 100 µg/mL; in assay [5], more than 100 µg/mL; in assay [6], more than 100 µg/mL. For the same compound, the MIC in assay [7] and in assay [8] was more than 100 µg/mL throughout.

On to `CC(C)(C)c1ccc(C(=O)CSc2ccnc3ccccc23)cc1` [Compound 5, 4-[2-(4-tert-Butylphenyl)-2-oxoethylthio]quinoline], for which the MIC was 0.025 µg/mL (≈ 0.0745 µM) in assay [1]; more than 100 µg/mL in assay [2]; more than 100 µg/mL in assay [3]; more than 100 µg/mL in assay [4]; more than 100 µg/mL in assay [5]; more than 100 µg/mL in assay [6]. Further, the MIC in assay [7] and in assay [8] was more than 100 µg/mL each time.

Regarding `O=C(CSc1ccnc2ccccc12)c1ccc(OCc2ccccc2)cc1` [Compound 1, 4-[2-(4-Benzyloxyphenyl)-2-oxoethylthio]quinoline], the MIC in assay [1] was 0.05 µg/mL (≈ 0.13 µM); in assay [2] it was more than 100 µg/mL; in assay [3], more than 100 µg/mL; in assay [4], more than 100 µg/mL; in assay [5] it was more than 100 µg/mL; in assay [6], more than 100 µg/mL. Moreover, the MIC in assay [7] and in assay [8] was more than 100 µg/mL throughout.

Compound `CCOC(=O)N1CCN(c2ccc(C(=O)CSc3ccnc4ccccc34)cc2)CC1` [Compound 82, 4-[2-[4-(4-Ethoxycarbonyl-1-piperazinyl)phenyl]-2-oxoethylthio]quinoline] yielded an MIC in assay [1] of 0.0008 µg/mL (≈ 0.00184 µM).

`COc1ccc(C=CC(=O)N2CCN(c3ccc(C(=O)CSc4ccnc5ccccc45)cc3)CC2)cc1` [Compound 53, 4-[2-[4-[4-(4-Methoxycinnamoyl)-1-piperazinyl]phenyl]-2-oxoethylthio]quinoline]: the MIC in assay [1] amounted to 0.025 µg/mL (≈ 0.0477 µM).

Regarding `CSc1ccc2c(SCc3ccc(NCCC(C)CC(C)(C)C)cc3)ccnc2c1` (stereo not drawn) [Compound 37, 4-[4-(3,5,5-Trimethylhexylamino)benzylthio]-7-methylthioquinoline], 0.2 µg/mL (≈ 0.456 µM) was the least that counted as inhibitory in assay [1] (MIC).

In assay [1], `CC(C)(C)C(=O)N1CCC(c2ccc(C(=O)CSc3ccnc4ccccc34)cc2)CC1` [Compound 28, 4-[2-[4-(1-Pivaloyl-4-piperidinyl)phenyl]-2-oxoethylthio]-quinoline] came in with an MIC of 0.0008 µg/mL (≈ 0.00179 µM). This MIC lies about 250-fold lower than the previous one.

Regarding `OC(CSc1ccnc2ccccc12)c1ccc2ccccc2c1` (stereo not drawn) [Compound 61, 4-[2-(2-Naphtyl)-2-hydroxyethylthio]quinoline], it took 0.2 µg/mL (≈ 0.603 µM) to inhibit growth in assay [1] (MIC).

In assay [1], `CC(C)(C)OC(=O)N1CCC(c2ccc(C(=O)CSc3ccnc4ccccc34)cc2)CC1` [Compound 75, 4-[2-[4-(1-tert-Butoxycarbonyl-4-piperidinyl)phenyl]-2-oxoethylthio]quinoline] registered an MIC of 0.0125 µg/mL (≈ 0.027 µM).

In assay [1], `O=C(CSc1ccnc2ccccc12)c1ccc(N2CCN(c3ccc(Br)cc3)CC2)cc1` [Compound 67, 4-[2-[4-[4-(4-Bromophenyl)-1-piperazinyl]phenyl]-2-oxoethylthio]quinoline] displayed an MIC of 0.0062 µg/mL (≈ 0.012 µM).

Turning to `CSc1ccc2c(SCc3ccc(N(C)C)c(N(C)C)c3)ccnc2c1` [Compound 41, 4-[3,4-Bis(dimethylamino)benzylthio]-7-methylthioquinoline], it took 0.2 µg/mL (≈ 0.521 µM) to inhibit growth in assay [1] (MIC). Compared with the last compound, the MIC is about 32-fold higher.

As to `CSc1ccc2c(SCc3ccc(N(C)C)c(C)c3)ccnc2c1` [Compound 40, 4-(3-Methyl-4-dimethylaminobenzylthio)-7-methylthioquinoline], the MIC in assay [1] stood at 0.2 µg/mL (≈ 0.564 µM).

In assay [1], `c1ccc(COc2ccc(CCSc3ccnc4ccccc34)cc2)cc1` [Compound 25, 4-[2-(4-Benzyloxyphenyl)ethylthio]quinoline] gave a minimum inhibitory concentration (MIC) of 0.1 µg/mL (≈ 0.269 µM).

The record behind these values is patent US6057447A, “Quinoline sulfide derivatives” (Zenyaku Kogyo Kabushiki Kaisha, priority 1996, dated 2000).
